Laboratory results from patent US8426408B2, “Pyrimidine inhibitors of kinases” (AbbVie Inc., priority 2009, dated 2013).

Key:
Aurora A = biological target: T1, Aurora A (Homo sapiens, UniProt O14965); assay: Aurora A enzyme inhibition (time-resolved fluorescence, STK substrate-2); type: biochemical; details: 1 mM ATP
T1 sequence (O14965 1-403): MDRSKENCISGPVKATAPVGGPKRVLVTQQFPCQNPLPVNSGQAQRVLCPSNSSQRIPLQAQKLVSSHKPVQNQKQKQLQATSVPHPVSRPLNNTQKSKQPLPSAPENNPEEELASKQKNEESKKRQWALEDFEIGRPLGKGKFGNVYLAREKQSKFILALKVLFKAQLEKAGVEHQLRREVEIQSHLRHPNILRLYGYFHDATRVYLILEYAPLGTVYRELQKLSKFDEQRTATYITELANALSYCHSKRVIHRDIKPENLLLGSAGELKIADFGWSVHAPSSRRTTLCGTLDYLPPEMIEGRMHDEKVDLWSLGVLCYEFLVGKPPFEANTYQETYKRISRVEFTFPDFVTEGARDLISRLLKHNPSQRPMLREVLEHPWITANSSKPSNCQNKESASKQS
Summary of the method: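 Active enzyme incubated 1 h with biotinylated STK substrate-2, 1 mM ATP and inhibitor in Hepes pH 7.4 with MgCl2, orthovanadate and Triton X-100. EDTA stop; phosphopeptide detected by Eu-cryptate anti-phospho-STK/SA-XL665 TR-FRET (665/615 nm ratio); IC50 by exponential fit.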

Aurora B = biological target: T2, Aurora B (Homo sapiens, UniProt Q96GD4); assay: Aurora B enzyme inhibition (time-resolved fluorescence, histone H3 peptide); type: biochemical; details: 1 mM ATP
T2 construct: Active Aurora B enzyme (recombinant residues 1-344)
Summary of the method: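 Recombinant Aurora B (residues 1-344) with GST-INCENP phosphorylated biotinylated histone H3 (1-21) peptide at 1 mM ATP in HEPES pH 7.4 with MgCl2, orthovanadate and Triton X-100 for 1 h. After EDTA stop, the phosphopeptide was detected by TR-FRET (Eu-cryptate anti-phospho-H3 / SA-APC, 665/615 nm ratio). IC50 from an exponential fit.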

NCI-H1299 cells = assay: Induction of polyploidy in H1299; type: cell-based, Human; details: NCI-H1299, 48 hours; for EC15: Homo sapiens, read-out: EC15 (concentration of inhibitor necessary to induce polyploidy in 15% of cells)
Summary of the method: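 NCI-H1299 cells in RPMI 1640/10% FCS were treated with inhibitor concentrations in duplicate for 48 h at 37 C, then formalin-fixed and Hoechst-stained. Nuclear area was measured by high-content imaging, with polyploid (≥4N) defined as >750 μ^2. EC15 was derived by least-squares fit of log dose-response.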

KDR = KDR (Homo sapiens, UniProt P35968); assay: KDR HTRF in vitro kinase assay; type: biochemical; set-up: purified enzyme (His6-KDR 789-1354, MW 63 kD); His6 (N); details: 1 mM ATP; read-out: KDR enzyme inhibition data (Ki)
Summary of the method: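 His6-KDR 789-1354 (7 ng/well) with 0.5 μM biotinylated peptide substrate and 1 mM ATP in HEPES pH 7.1, MgCl2/MnCl2, 60 min at room temperature. EDTA-quenched, detected by streptavidin-XL-665 plus Eu-kryptate anti-phosphotyrosine HTRF after 3 h; IC50 from 620/665 nm ratio.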

KDR, sequence (P35968 789-1354): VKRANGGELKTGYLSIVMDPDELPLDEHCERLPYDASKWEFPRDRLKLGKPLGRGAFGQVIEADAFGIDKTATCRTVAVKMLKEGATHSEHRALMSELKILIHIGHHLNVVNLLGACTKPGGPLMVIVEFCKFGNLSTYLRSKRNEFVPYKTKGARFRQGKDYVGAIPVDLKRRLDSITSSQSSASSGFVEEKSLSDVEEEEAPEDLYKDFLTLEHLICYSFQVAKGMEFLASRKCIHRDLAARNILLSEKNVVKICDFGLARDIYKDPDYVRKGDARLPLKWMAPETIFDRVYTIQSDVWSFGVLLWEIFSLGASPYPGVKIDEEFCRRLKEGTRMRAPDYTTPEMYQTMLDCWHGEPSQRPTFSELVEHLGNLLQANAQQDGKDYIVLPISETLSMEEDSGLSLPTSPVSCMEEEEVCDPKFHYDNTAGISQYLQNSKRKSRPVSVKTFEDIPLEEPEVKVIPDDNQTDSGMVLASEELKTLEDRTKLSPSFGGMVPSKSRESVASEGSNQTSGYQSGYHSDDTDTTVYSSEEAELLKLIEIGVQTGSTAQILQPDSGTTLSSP
T2 sequence (Q96GD4 whole entry, the tested form may be a part): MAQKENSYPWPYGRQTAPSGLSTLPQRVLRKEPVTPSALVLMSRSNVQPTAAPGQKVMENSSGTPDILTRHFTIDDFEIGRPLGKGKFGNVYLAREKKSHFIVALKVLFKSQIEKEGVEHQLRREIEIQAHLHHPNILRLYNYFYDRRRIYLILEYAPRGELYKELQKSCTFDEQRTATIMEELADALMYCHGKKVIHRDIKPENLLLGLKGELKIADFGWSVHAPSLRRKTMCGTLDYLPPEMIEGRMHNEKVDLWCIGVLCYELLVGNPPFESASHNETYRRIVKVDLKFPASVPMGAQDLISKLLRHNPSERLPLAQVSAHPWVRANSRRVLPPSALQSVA
T2 sequence (Q9NQS7 826-918 partner limits assumed): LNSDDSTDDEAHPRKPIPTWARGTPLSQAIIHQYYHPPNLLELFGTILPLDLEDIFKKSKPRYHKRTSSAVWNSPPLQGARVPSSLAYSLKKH

Ki (Aurora A)	Ki (Aurora B)	Ki (KDR)	Structure (SMILES)	EC15 (concentration of inhibitor necessary to induce polyploidy in 15% of cells) (NCI-H1299 cells)	EC15 (NCI-H1299 cells)
< 0.1 µM	< 0.1 µM	< 0.1 µM	CCn1cc(Nc2ncc(Cl)c(N[C@@H]3[C@H](C(N)=O)[C@@H]4C=C[C@H]3C4)n2)cn1.CCn1cc(Nc2ncc(Cl)c(N[C@H]3[C@@H](C(N)=O)[C@H]4C=C[C@@H]3C4)n2)cn1 (mixture of isomers) [Example 121, (1S,2R,3S,4R)-3-({5-chloro-2-[(1-ethyl-1H-pyrazol-4-yl)amino]pyrimidin-4-yl}amino)bicyclo[2.2.1]hept-5-ene-2-carboxamide and (1R,2S,3R,4S)-3-({5-chloro-2-[(1-ethyl-1H-pyrazol-4-yl)amino]pyrimidin-4-yl}amino)bicyclo[2.2.1]hept-5-ene-2-carboxamide]	A (“A” represents an EC15 of less than 0.1 μM)	–
< 0.1 µM	< 0.1 µM	0.1 to 1 µM	NC(=O)[C@@H]1CCC[C@@H]1Nc1nc(Nc2cnn(C3CCNCC3)c2)ncc1Cl.NC(=O)[C@H]1CCC[C@H]1Nc1nc(Nc2cnn(C3CCNCC3)c2)ncc1Cl (mixture of isomers) [Example 136, (1S,2R)-2-[(5-chloro-2-{[1-(piperidin-4-yl)-1H-pyrazol-4-yl]amino}pyrimidin-4-yl)amino]cyclopentanecarboxamide and (1R,2S)-2-[(5-chloro-2-{[1-(piperidin-4-yl)-1H-pyrazol-4-yl]amino}pyrimidin-4-yl)amino]cyclopentanecarboxamide]	A (“A” represents an EC15 of less than 0.1 μM)	–
< 0.1 µM	< 0.1 µM	< 0.1 µM	Cn1cc(Nc2ncc(Cl)c(N[C@@H]3[C@H](C(N)=O)[C@H]4CC[C@@H]3O4)n2)cn1.Cn1cc(Nc2ncc(Cl)c(N[C@H]3[C@@H](C(N)=O)[C@@H]4CC[C@H]3O4)n2)cn1 (mixture of isomers) [Example 141, (1S,2R,3S,4R)-3-({5-chloro-2-[(1-methyl-1H-pyrazol-4-yl)amino]pyrimidin-4-yl}amino)-7-oxabicyclo[2.2.1]heptane-2-carboxamide and (1R,2S,3R,4S)-3-({5-chloro-2-[(1-methyl-1H-pyrazol-4-yl)amino]pyrimidin-4-yl}amino)-7-oxabicyclo[2.2.1]heptane-2-carboxamide]	B (“B” represents an EC15 of between 0.1 μM and 1 μM)	–
< 0.1 µM	< 0.1 µM	< 0.1 µM	Cn1cc(Nc2ncc(Cl)c(N[C@@H]3CC[C@@H]3C(N)=O)n2)cn1.Cn1cc(Nc2ncc(Cl)c(N[C@H]3CC[C@H]3C(N)=O)n2)cn1 (mixture of isomers) [Example 151, (1S,2R)-2-({5-chloro-2-[(1-methyl-1H-pyrazol-4-yl)amino]pyrimidin-4-yl}amino)cyclobutanecarboxamide and (1R,2S)-2-({5-chloro-2-[(1-methyl-1H-pyrazol-4-yl)amino]pyrimidin-4-yl}amino)cyclobutanecarboxamide]	A (“A” represents an EC15 of less than 0.1 μM)	–
< 0.1 µM	< 0.1 µM	< 0.1 µM	CCn1cc(Nc2ncc(Cl)c(N[C@H]3[C@@H](C(N)=O)[C@@H]4C=C[C@H]3C4)n2)cn1 (racemic) [Example 30, (1S,2S,3R,4R)-3-({5-chloro-2-[(1-ethyl-1H-pyrazol-4-yl)amino]pyrimidin-4-yl}amino)bicyclo[2.2.1]hept-5-ene-2-carboxamide and (1R,2R,3S,4S)-3-({5-chloro-2-[(1-ethyl-1H-pyrazol-4-yl)amino]pyrimidin-4-yl}amino)bicyclo[2.2.1]hept-5-ene-2-carboxamide]	A (“A” represents an EC15 of less than 0.1 μM)	–
< 0.1 µM	< 0.1 µM	< 0.1 µM	CCn1cc(Nc2ncc(Cl)c(NC3C4CCC(O4)C3C(N)=O)n2)cn1 (racemic) [Example 142, (1S,2R,3S,4R)-3-({5-chloro-2-[(1-ethyl-1H-pyrazol-4-yl)amino]pyrimidin-4-yl}amino)-7-oxabicyclo[2.2.1]heptane-2-carboxamide and (1R,2S,3R,4S)-3-({5-chloro-2-[(1-ethyl-1H-pyrazol-4-yl)amino]pyrimidin-4-yl}amino)-7-oxabicyclo[2.2.1]heptane-2-carboxamide]	B (“B” represents an EC15 of between 0.1 μM and 1 μM)	–
< 0.1 µM	< 0.1 µM	0.1 to 1 µM	CC(C)NC(=O)C1CCCC1Nc1nc(Nc2cnn(C3CCNCC3)c2)ncc1Cl (racemic) [Example 163, (1S,2R)-2-[(5-chloro-2-{[1-(piperidin-4-yl)-1H-pyrazol-4-yl]amino}pyrimidin-4-yl)amino]-N-isopropylcyclopentanecarboxamide and (1R,2S)-2-[(5-chloro-2-{[1-(piperidin-4-yl)-1H-pyrazol-4-yl]amino}pyrimidin-4-yl)amino]-N-isopropylcyclopentanecarboxamide]	A (“A” represents an EC15 of less than 0.1 μM)	–
< 0.1 µM	< 0.1 µM	< 0.1 µM	CNC(=O)Cn1cc(Nc2ncc(Cl)c(N[C@@H]3[C@H]4CC[C@H](C4)[C@@H]3C(N)=O)n2)cn1 [Example 88, (1R,2S,3R,4S)-3-{[5-chloro-2-({1-[2-(methylamino)-2-oxoethyl]-1H-pyrazol-4-yl}amino)pyrimidin-4-yl]amino}bicyclo[2.2.1]heptane-2-carboxamide]	–	0.1 to 1 µM
< 0.1 µM	< 0.1 µM	< 0.1 µM	CN(C)CC(=O)N1CCC(n2cc(Nc3ncc(Cl)c(N[C@H]4[C@@H](C(N)=O)[C@@H]5C=C[C@H]4C5)n3)cn2)CC1 [Example 89, (1S,2S,3R,4R)-3-{[5-chloro-2-({1-[1-(N,N-dimethylglycyl)piperidin-4-yl]-1H-pyrazol-4-yl}amino)pyrimidin-4-yl]amino}bicyclo[2.2.1]hept-5-ene-2-carboxamide]	–	< 0.1 µM
< 0.1 µM	< 0.1 µM	< 0.1 µM	CN1CCN(CCn2cc(Nc3ncc(Cl)c(N[C@@H]4[C@H]5CC[C@H](C5)[C@@H]4C(N)=O)n3)cn2)CC1 [Example 90, (1R,2S,3R,4S)-3-{[5-chloro-2-({1-[2-(4-methylpiperazin-1-yl)ethyl]-1H-pyrazol-4-yl}amino)pyrimidin-4-yl]amino}bicyclo[2.2.1]heptane-2-carboxamide]	–	0.1 to 1 µM
< 0.1 µM	< 0.1 µM	< 0.1 µM	CN1CCN(CCn2cc(Nc3ncc(Cl)c(N[C@H]4[C@@H](C(N)=O)[C@@H]5C=C[C@H]4C5)n3)cn2)CC1 [Example 91, (1S,2S,3R,4R)-3-{[5-chloro-2-({1-[2-(4-methylpiperazin-1-yl)ethyl]-1H-pyrazol-4-yl}amino)pyrimidin-4-yl]amino}bicyclo[2.2.1]hept-5-ene-2-carboxamide]	–	< 0.1 µM
< 0.1 µM	< 0.1 µM	< 0.1 µM	CC(=O)N1CCC(n2cc(Nc3ncc(Cl)c(N[C@H]4[C@@H](C(N)=O)[C@@H]5C=C[C@H]4C5)n3)cn2)CC1 [Example 92, (1S,2S,3R,4R)-3-[(2-{[1-(1-acetylpiperidin-4-yl)-1H-pyrazol-4-yl]amino}-5-chloropyrimidin-4-yl)amino]bicyclo[2.2.1]hept-5-ene-2-carboxamide]	–	< 0.1 µM
